Data as given in patent US20260297679A1, “ASSAYS FOR MONITORING INHIBITION OF RNA HELICASE DHX9” (ACCENT THERAPEUTICS, INC., priority 2023, published 2026).

Tests used:
[1] = system: breast, ovarian, and lung cell lines; assay: circBRIP1 levels in breast, ovarian, and lung cell lines; assay type: cell-based
Protocol: Cells were plated at pre-determined cell densities in 384-well cell culture plates and incubated overnight in 37° C. at 5% CO2. […] Using TaqMan Multiplex Mastermix and thermal cycle conditions for the Quant Studio Thermocycler, qPCR was carried out as described above to quantify the level of circBRIP1.
Data analysis was performed by using the QuantStudio Thermocycler software to determine threshold Ct values. ΔCt for circBRIP1 is calculated by normalizing the target gene Ct to the GAPDH housekeeping gene Ct for each sample.
The inhibition activity (% Vehicle) is calculated by the following formulas, whereas: […]
An EC50 was then calculated using a 4-parameter logistic nonlinear regression model in Scigilian Analyze or GraphPad Prism, floating both the top and bottom parameters. […]

frozen PBMCs = assay: circBRIP1 level in frozen human PBMCs; assay type: cell-based; settings: 10 μM, 24 hours, frozen PBMCs from three donors, vs vehicle; FIG. 8A
Protocol: As proof of concept, circBRIP1 levels were examined in peripheral blood mononuclear cells (PMBCs) using frozen PBMCs from donors after treatment with a DHX9 inhibitor.
Frozen PBMCs were thawed in a 37° C. water bath, washed, and reconstituted in media. The same number of cells were added to each well of 12-well plates and let rest for 2 hours before being subjected to testing conditions. Compound 1 was dissolved in DMSO at 10 mM as a stock solution, and diluted to a desired concentration. Frozen PBMCs from three donors or LS411N cells (positive control) were treated with 10 μM of Compound 1 or control vehicle for 24 hours. The circBRIP1 level was determined using methods essentially as described above.

LS411N tumors = assay: In vivo efficacy study, tumor volume, LS411N xenograft; set-up: species or system human xenograft in female BALB/c nude mice; settings: BID oral, 21 days; FIG. 4B
Protocol: In vivo Efficacy Study: Experiments were performed in female BALB/c nude mice (GenPharmatech Co.). Animals were allowed to acclimate for 7 days before the study. The general health of the animals were evaluated by a veterinarian, and complete health checks were performed prior to the study. General procedures for animal care and housing were in accordance with the standard, Commission on Life Sciences, National Research Council, Standard Operating Procedures (SOPs) of Pharmaron, Inc. The mice were kept in laminar flow rooms at constant temperature and humidity with 3-5 mice in each cage. Animals were housed in polycarbonate cage which is the size of 300×180×150 mm^3 and in an environmentally monitored, well-ventilated room maintained at a temperature of (23±3° C.) and a relative humidity of 40% 70%. Fluorescent lighting provided illumination approximately 12 hours per day. […]
The LS411N (ATCC; CRL-2159) tumor cell lines were maintained in vitro as monolayer in RPMI 1640 medium supplemented with 10% heat inactivated FBS, at 37° C. in an atmosphere of 5% CO2 in air. The tumor cells were sub-cultured, not exceeding 4-5 passages, and cells growing in an exponential growth phase were harvested and counted for tumor inoculation. […]
The measurement of tumor size was conducted with a caliper and recorded twice per week. […]

Cc1cccnc1-c1csc(C(=O)Nc2cc(Cl)cc(NS(C)(=O)=O)c2)c1 [Compound 1, N-(3-chloro-5-methanesulfonamidophenyl)-4-(3-methylpyridin-2-yl)thiophene-2-carboxamide]
circBRIP1 levels [1]: upregulated in breast, ovarian, and lung cell lines | circBRIP1 level in PBMCs (frozen PBMCs): significantly elevated | correlation of tumor volume to circBRIP1 induction (LS411N tumors): correlate to circBRIP1 induction
